Measured values from US4260630A, “Skin diseases” (priority 1977, dated 1981).

Assays:
Saccharomyces cerevisiae [1] = assay: Induction of cytoplasmic "petite" mutations in yeast; conditions: compared at the same survival level (10%)
Description: (§1) A wild-type strain 211-1aM (29) of Saccharomyces cerivisiae was used, and the following mutants derived from it: S24-12c rad2-20 deficient in excision repair and S25-13b rad9-4 likely to be blocked in a recombinational repair pathway; a double mutant S 2057NL-24 rad2-20 -rad9-4 clone B was obtained by tetrad analysis of a heterozygote [formula]
(§2) The media and culture conditions used were as described in D. Averbeck, E. Moustacchi, (1975) Biochim. Biophys. Acta, 395, 393-404.
(§3) 10^6 cells/ml in saline (0.9% NaCl) were treated for 30 minutes with the drugs at a final concentration of 10 μg/ml and 1.2% ethanol present.
A Philips HPW 125 culot Edison high pressure mercury lamp was used with maximal output at the wavelength 365 nm. The irradiation dose measured by actinometry was 10 J/m^2 per sec., using the following set up: 10 ml of actinometer solution (or the cell suspension, usually 1×10^6 cells/ml), stirred continuously by a magnetic stirrer, were irradiated at room temperature in an open Petri dish of 10 cm diameter at a distance of 10 cm from the center of the light bulb which was mounted horizontally. A 2 mm thick pyrex glass sheet (20×25 cm) was placed in the center of the light beam to cut out UV light of wavelength below 340 nm. […]

Saccharomyces cerevisiae [2] = test system: Saccharomyces cerevisiae
Description: as §1, §2, §3
A Philips HPW 125 culot Edison high pressure mercury lamp was used with maximal output at the wavelength 365 nm. The irradiation dose measured by actinometry was 10 J/m^2 per sec., using the following set up: 10 ml of actinometer solution (or the cell suspension, usually 1×10^6 cells/ml), stirred continuously by a magnetic stirrer, were irradiated at room temperature in an open Petri dish of 10 cm diameter at a distance of 10 cm from the center of the light bulb which was mounted horizontally. A 2 mm thick pyrex glass sheet (20×25 cm) was placed in the center of the light beam to cut out UV light of wavelength below 340 nm. Overheating was prevented either by a continuous flow of compressed air between the light bulb and the glass or by a pyrex glass water filter of 3 cm total thickness. An accumulative irradiation dose was given to the same sample. After each dose 0.1 ml of irradiated cell suspension was taken, diluted and aliquots plated.

yeast DNA = assay: Photobinding to yeast DNA in vivo (radiolabelled drug plus 365 nm light); type: binding, Saccharomyces cerevisiae
Description: The radioactivity of an aliquot (0.1 ml) of this solution was measured in 5 ml of scintillation mixture (Nuclear Entreprise, Ltd., Edinburgh, Scotland, NE 250).
For the in vivo determinations stationary phase cells of the haploid wild type strain N 123 were prepared as previously described.
2 ml cell suspensions were exposed to several doses of 365 nm light. In parallel, non irradiated samples were incubated for the same periods. Immediately after incubation and/or irradiation, the samples were centrifuged and the pellet was washed 3 times with 5 ml of saline (0.9% NaCl). The washed cell pellet was resuspended in 1 ml of saline and 1 ml of 2 N NaOH was added in order to hydrolyze the RNA. The suspension was incubated overnight in the dark at room temperature, then cooled down on ice, and 2 ml of 50% TCA were added slowly. The samples were left 20 minutes on ice and the precipitated DNA was filtered on a glass fiber filter disc (Whatman GF/A, 2.1 cm diameter). In some cases the filtrate containing the acid-soluble material was kept aside, and the radioactivity of an aliquot added to 5 ml of NE250 scintillation mixture measured. The precipitate was washed 3 times with 5 ml of 5% cold TCA and 5 ml of 70% ethanol. The filters were then dried and the radioactivity measured in plastic counting vials containing 5 ml of scintillation mixture (NE 250) in a Tricarb Packard scintillation spectrophotometer.

calf thymus DNA = assay: Photobinding to native calf thymus DNA in vitro; type: binding; conditions: 6 × 10^-5 M, 0-60 min incubation (dark)
Description: These determinations were done in vitro and in vivo. […] The thickness of the irradiated sample was 1 mm. After irradiation, the solution was diluted by a factor of 2, and NaCl was added to a final concentration of 1 M. The DNA was precipitated with 2 volumes of cold pure ethanol. The samples were left overnight in the cold at -20° C. The precipitate was then washed by centrifugation three times with 3 ml of 70% ethanol and redissolved in 3 ml of water. The DNA recovery was checked by determination of the optical density of the solution at 260 nm.

[3] = 5 min, 6.3 × 10^4 ergs.mm^-2 365 nm
[4] = 10 min, 12.6 × 10^4 ergs.mm^-2 365 nm
[5] = 15 min, 18.9 × 10^4 ergs.mm^-2 365 nm
[6] = 20 min, 25.2 × 10^4 ergs.mm^-2 365 nm
[7] = 30 min, 38.8 × 10^4 ergs.mm^-2 365 nm
[8] = 40 min, 50.4 × 10^4 ergs.mm^-2 365 nm
[9] = 60 min, 75.6 × 10^4 ergs.mm^-2 365 nm

CCOC(=O)c1cc2cc3ccoc3cc2oc1=O [Example 3-CPs, 3-carboethoxypsoralen]
induction of cytoplasmic "petite" mutations (Saccharomyces cerevisiae [1]): the most reactive compound
difference in survival response, 3-CPs vs 8-MOP (Saccharomyces cerevisiae [2]): 6 factor
dose-modifying factor for rad9-4 compared to wild type (Saccharomyces cerevisiae [2]): constant
photobiological activity after previous exposure to light (Saccharomyces cerevisiae [2]): decline in the photobiological activity
resistance to the killing effect compared with 8-MOP (Saccharomyces cerevisiae [2]): much higher than that expected from the photoreactivity
shape of survival curve (Saccharomyces cerevisiae [2]): exponential survival curve
survival level compared with 8-MOP (Saccharomyces cerevisiae [2]): still relatively high as compared to that for 8-MOP
survivors (Saccharomyces cerevisiae [2]; saline, 5 min): 10^-1
concentration versus 365 nm light dose, log-log plot at given survival (Saccharomyces cerevisiae [2]; wild type and rad9-4): follows a linear function
reciprocity between light dose and drug concentration for cell killing (Saccharomyces cerevisiae [2]; wild type and rad9-4): no reciprocity between the light dose and the drug concentration
Molecules 3-CPs/μg DNA (yeast DNA; 5-60 min, no 365 nm light): 0.012 Molecules 3-CPs/μg DNA × 10^14
cpm for 10^8 cells (yeast DNA; 5-60 min, no 365 nm light): 67.75 cpm for 10^8 cells
μg 3-CPs/μg DNA (yeast DNA; 5-60 min, no 365 nm light): 0.05 μg 3-CPs/μg DNA × 10^-2
molecules linked to DNA per cell (yeast DNA; 18.9×10^3 J/m^2, 5×10^-5 M): 10.5×10^6 molecules per cell
binding ratio: pyrimidine bases per 1 bound molecule (yeast DNA; 18.9×10^3 J/m^2, 5×10^-5 M, on average): 2 pyrimidine bases
Molecules 3-CPs/μg DNA (yeast DNA; [3]): 0.92 Molecules 3-CPs/μg DNA × 10^14
cpm for 10^8 cells (yeast DNA; [3]): 5030.5 cpm for 10^8 cells
μg 3-CPs/μg DNA (yeast DNA; [3]): 3.9 μg 3-CPs/μg DNA × 10^-2
binding to DNA in vivo compared with in vitro (yeast DNA; 365 nm light): higher in the in vivo condition than in vitro
Molecules 3-CPs/μg DNA (yeast DNA; [4]): 1.34 Molecules 3-CPs/μg DNA × 10^14
cpm for 10^8 cells (yeast DNA; [4]): 9409 cpm for 10^8 cells
μg 3-CPs/μg DNA (yeast DNA; [4]): 5.7 μg 3-CPs/μg DNA × 10^-2
Molecules 3-CPs/μg DNA (yeast DNA; [5]): 2.1 Molecules 3-CPs/μg DNA × 10^14
cpm for 10^8 cells (yeast DNA; [5]): 11386.5 cpm for 10^8 cells
μg 3-CPs/μg DNA (yeast DNA; [5]): 9 μg 3-CPs/μg DNA × 10^-2
Molecules 3-CPs/μg DNA (yeast DNA; [6]): 2.8 Molecules 3-CPs/μg DNA × 10^14
cpm for 10^8 cells (yeast DNA; [6]): 15650.2 cpm for 10^8 cells
μg 3-CPs/μg DNA (yeast DNA; [6]): 12.3 μg 3-CPs/μg DNA × 10^-2
Molecules 3-CPs/μg DNA (yeast DNA; [7]): 2.8 Molecules 3-CPs/μg DNA × 10^14
cpm for 10^8 cells (yeast DNA; [7]): 15307 cpm for 10^8 cells
μg 3-CPs/μg DNA (yeast DNA; [7]): 12 μg 3-CPs/μg DNA × 10^-2
Molecules 3-CPs/μg DNA (yeast DNA; [8]): 2.6 Molecules 3-CPs/μg DNA × 10^14
cpm for 10^8 cells (yeast DNA; [8]): 14248 cpm for 10^8 cells
μg 3-CPs/μg DNA (yeast DNA; [8]): 11 μg 3-CPs/μg DNA × 10^-2
Molecules 3-CPs/μg DNA (yeast DNA; [9]): 2.3 Molecules 3-CPs/μg DNA × 10^14
cpm for 10^8 cells (yeast DNA; [9]): 16476 cpm for 10^8 cells
μg 3-CPs/μg DNA (yeast DNA; [9]): 10 μg 3-CPs/μg DNA × 10^-2
dark binding with DNA relative to that at lowest dose of irradiation (yeast DNA; dark, 50 minutes): around 10%
365 nm light dose up to which binding with DNA increases linearly, then levels off (yeast DNA; in vivo): up to 25.2×10^3 J/m^2
amount linked to DNA compared with RNA per cell (yeast DNA; in vivo): about the same as that bound to RNA per cell
amount linked to DNA relative to 8-MOP (yeast DNA; in vivo): about 15 times more
binding to DNA compared with 8-MOP (yeast DNA; in vivo): binds to DNA much more efficiently than 8-MOP
difference in photoreactivity with DNA in vivo, 3-CPs vs 8-MOP (yeast DNA; in vivo): 15 factor
difference in photoreactivity with DNA, 3-CPs vs 8-MOP (yeast DNA; in vivo): ≤ 20 factor
photoaffinity to DNA compared with RNA (yeast DNA; molecular basis): much higher than to RNA
cpm/μg DNA (calf thymus DNA): 0.21 cpm/μg DNA
